In publication PMC10687071 (The Journal of Biological Chemistry, 2023) one finds IC50 data, which are given here for one molecule.

Structures are written as SMILES. Numbering of substitutions follows the chain as printed.

Test [1] deals with T1, F87G mutant EAG1 channels (Mus musculus, UniProt Q60603, F87G).
T1 construct: expressed in transfected cells; host or cells: Xenopus laevis oocytes injected with cRNA
T1 sequence (Q60603 1-989 F87G): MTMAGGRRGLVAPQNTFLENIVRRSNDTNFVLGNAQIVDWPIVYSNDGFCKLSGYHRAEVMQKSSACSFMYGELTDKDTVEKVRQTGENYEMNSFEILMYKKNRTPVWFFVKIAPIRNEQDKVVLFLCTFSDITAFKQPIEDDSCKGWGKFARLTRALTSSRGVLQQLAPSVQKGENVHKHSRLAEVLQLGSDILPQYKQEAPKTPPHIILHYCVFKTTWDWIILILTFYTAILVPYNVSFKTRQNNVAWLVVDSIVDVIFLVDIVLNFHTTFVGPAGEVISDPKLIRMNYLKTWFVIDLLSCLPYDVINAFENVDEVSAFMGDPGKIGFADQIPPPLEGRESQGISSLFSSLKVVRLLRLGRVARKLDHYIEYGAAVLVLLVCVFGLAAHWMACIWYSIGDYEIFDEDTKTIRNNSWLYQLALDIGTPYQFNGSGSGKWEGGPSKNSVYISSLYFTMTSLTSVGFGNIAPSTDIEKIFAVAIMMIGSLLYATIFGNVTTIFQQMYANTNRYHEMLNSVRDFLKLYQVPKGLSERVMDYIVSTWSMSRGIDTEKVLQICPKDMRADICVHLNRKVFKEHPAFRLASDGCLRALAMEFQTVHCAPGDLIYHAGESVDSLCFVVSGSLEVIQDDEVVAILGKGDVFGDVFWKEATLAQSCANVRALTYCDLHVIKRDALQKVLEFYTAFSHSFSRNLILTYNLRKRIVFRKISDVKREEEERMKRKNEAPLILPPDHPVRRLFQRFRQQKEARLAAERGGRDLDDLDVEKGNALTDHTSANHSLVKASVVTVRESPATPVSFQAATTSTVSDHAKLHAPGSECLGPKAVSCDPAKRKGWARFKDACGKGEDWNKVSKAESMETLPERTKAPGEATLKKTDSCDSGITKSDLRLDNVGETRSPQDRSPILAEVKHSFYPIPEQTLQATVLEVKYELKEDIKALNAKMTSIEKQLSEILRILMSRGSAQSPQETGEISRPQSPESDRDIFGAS
The test can be described thus: TEVC recording, imipramine inhibition, F87G mutant. The class given is cell-based. Conditions: F87G mutant EAG1 channel, +50 mV. An excerpt:
(§1) The cDNA encoding wild-type (WT) mouse EAG1 channels in pGH19 vector was kindly provided by G. Robertson (University of Wisconsin-Madison, Madison, WI). The mutant ΔPAS EAG1 channel in pGH19 with the deletion of the PAS domain residues 2 to 130 was generated by Bio Basic Inc and verified by DNA sequencing (Genewiz). Mutant EAG1 channels with single amino acid substitutions were generated by Genewiz and verified by DNA sequencing. cRNA was transcribed using the T7 mMessage mMachine kit (Thermo Fisher Scientific). Defolliculated Xenopus laevis oocytes were purchased from Ecocyte Bioscience or Xenopus1 and injected with the cRNA using a Nanoinject II oocyte injector (Drummond).
(§2) For EAG1 current recordings, oocytes were placed into a handmade chamber containing a bath solution for the current recording. The currents were recorded using a TEVC technique with OC-725C amplifier (Warner Instruments) and pClamp11 software (Molecular Devices). The signals were digitized using Digidata 1550 (Molecular Devices). Patch pipettes were pulled from borosilicate glass and had resistances of 0.7 to 1.5 MΩ. The recording (bath) solution contained 96 mM NaCl, 4 mM KCl, 0.1 mM CaCl2, 1.8 mM MgCl2, and 5 mM HEPES, pH 7.5. The pipette solution contained 3 M KCl. […]

The target in test [2] is T2, F130G mutant EAG1 channels (Mus musculus, UniProt Q60603, F130G).
T2 construct: expressed in transfected cells; host or cells: Xenopus laevis oocytes injected with cRNA
T2 sequence (Q60603 1-989 F130G): T1 sequence (Q60603 1-989 F87G) with G87F, F130G
The test is described as follows: TEVC recording, imipramine inhibition, F130G mutant. Type of test: cell-based. The settings on record: F130G mutant EAG1 channel, +50 mV.
Description: as §1, §2

Take `CN(C)CCCN1c2ccccc2CCc2ccccc21` [imipramine]: the IC50 in test [1] amounted to 42.8 ± 0.6 µM; in test [2], 52.8 ± 5 µM.

As usually defined, the IC50 is the concentration needed to halve the response being measured. Read a low IC50 as higher potency.
